Source: patent US9457016B2, “Methods for treating polycystic kidney disease” (New York University, priority 2013, dated 2016)

How the values were obtained:
mTor [1] = experiment: mTOR activation by anti-phospho-S6 immunoblot after amino acid refeeding; format: cell-based, human; conditions: ADPKD cells refed glutamine and lysine 30 or 60 minutes after 3 hours amino acid deprivation
Description: FIG. 14. […] Cells were then lysed and mTOR activation was assessed by immunoblotting with anti-phospho-S6 antibodies (pS6). To control for loading, the same samples were immunoblotted with antibodies to actin (Actin).

ADPKD cells [2] = experiment: Seahorse analysis of ATP production and mitochondrial oxygen consumption; format: cell-based, human
Description: FIG. 13A-B. Seahorse analysis of ADPKD cells. ADPKD cells that were unstimulated or stimulated with forskolin in the presence or absence of BPTES and mitochondrial oxygen consumption was determined by seahorse analysis. (A) Schematic of the method and analysis. Oligomycin inhibits ATP synthase. FCCP is a mitochondrial uncoupler and leads to maximal OCR and rotenone interferes with electron transport. (B) Inhibition of ATP generation was also found by Seahorse analysis. ADPKD cells were unstimulated in the absence (C) or presence of BAPTES (B) or stimulated with forskolin in the absence (F) or presence of BPTES (FB).
The decreased generation of α-ketoglutarate, which feeds directly into tricarboxylic acid (TCA) would be predicted to lead to decreased TCA intermediates required for mitochondrial respiration and ATP generation. Seahorse analysis (Seahorse Biosciences) was performed on ADPKD cells that were either unstimulated or stimulated with forskolin in the presence or absence of BPTES.

ADPKD cells [3] = experiment: Cyst formation of ADPKD cells plated in collagen, forskolin stimulated; format: cell-based, human
Description: FIG. 1. […] Images are at 10×. BF=bright field.
FIG. 2. Quantification of cyst size and cyst number in ADPKD cells incubated with or without BPTES. Total number of cysts in FIG. 1 was counted and stratified by cyst size. Asterisks indicate statistically significant findings.
FIG. 10. siRNA to Gls1 inhibits cyst formation of ADPKD cells. ADPKD cells were transfected with a control or siRNA to Gls1 and cyst formation was assessed. Number of cysts in control (blue), siRNA transfected cells (green), or siRNA transfected cells cultured with dimethyl α-ketoglutarate (red).
FIG. 10 depicts results from experiments using siRNA to Gls1 to determine the effects of same on cyst formation of ADPKD cells. […] The following are exemplary siRNA sequences used for inhibition of Gls1 […] (SEQ ID NO: 1); SASI_Hs01_00071573-[…][dT][dT] (SEQ ID NO: 2); 2260 NM_014905-[…] (SEQ ID NO: 3); SASI_Hs01_00071574-[…][dT][dT] (SEQ ID NO: 4); 1081 NM_014905-[…] (SEQ ID NO: 5).
The present inventors have made the surprising discovery that inhibiting glutaminase 1 (gls1) blocks cyst formation and proliferation by ADPKD cells. […] ADPKD cells were plated in collagen and stimulated with the cyclic 3′-5′-adenosine monophosphate (cAMP) agonist forskolin. […] The results are depicted graphically in FIG. 2, wherein the data were stratified according to both the number of observable cysts and their size.

[4] = system: PKD1^flox/flox; Tamoxifen-Cre mice; format: in vivo; conditions: BPTES 12.5 mg/kg IP BID, postnatal day 15-32, N=4, vs vehicle control
Description: FIG. 12A-C. […] Mice were sacrificed on day 32 and analyzed. (A) Scan of sagittal section of littermates treated with BPTES or vehicle control; (B) Kidney wt/body wt; (C) cystic index.
Cre recombinase was induced on postnatal day 10 by administering tamoxifen (10 mg/40 g) intraperitoneally (IP) on two consecutive days. […] Only same sexed mice from same litters were compared.
Early Models. PKD1^flox/flox; Tamoxifen-Cre Mice: The present inventors obtained the tamoxifen-Cre mouse model from G. Germino. For early onset disease, Cre recombinase is induced at day 10 by administering tamoxifen (10 mg/40 g) intraperitoneally (IP) on 2 consecutive days as described in FIG. 12 above and in Piontek et al. (2007, Nature medicine, 13: 1490-1495; the entire content of which is incorporated herein by reference).

ADPKD cells [5] = experiment: Intracellular ATP levels; format: cell-based, human; conditions: 24 hours
Text: α-ketoglutarate also feeds directly into the tricarboxylic acid (TCA) cycle and therefore metabolism of α-ketoglutarate is an important source of ATP from glutamine.

mTor [6] = experiment: Recruitment of mTor to lysosome, immunofluorescence with LAMP; format: cell-based, human; conditions: ADPKD cells refed with amino acids (QL)
Text: (A) Schematic depicting mTor activation, which is mediated by the recruitment of mTor to the lysosome. (B) ADPKD cells were stimulated as in FIG. 14 and then subjected to immunofluorescence analysis with antibodies to LAMP (lysosomal associated membrane protein) which stains lysosomes and mTor. Co-localization is shown by a yellow signal following the merging of the green mTor signal and the red LAMP signal. Refeeding with amino acids (QL) led to colocalization or recruitment of mTor to the lysosome as manifested by yellow staining in the merged image (compare −QL with +QL), which was abolished by treatment with BPTES.

[7] = system: Pkd1^fl/fl; Pkhd1-Cre mice; experiment: Pkd1fl/fl; Pkhd1-Cre mouse model of ADPKD; format: in vivo
Text: As described in Karihaloo et al. (2011, J Am Soc Nephrol 22: 1809-1814), Pkd1^fl/fl; Pkhd1-Cre mice may be generated by crossing Pkd1fl/fl mice with Pkhd1-Cre mice13 so as to achieve kidney-specific deletion of the Pkd1 allele. See also Shibazaki et al. (2008, Hum Mol Genet 17, 1505-1516) and Patel et al. (2008, Hum Mol Genet 17, 1578-1590). The entire content of each of Karihaloo et al., Shibazaki et al., and Patel et al. is incorporated herein by reference.
Pkhd-Cre Mice: This is a very robust and reproducible early model of PKD. The Somlo lab has shown that Pkhd-cre expresses and deletes predominantly in collecting tubules Ma et al. (2013, Nature genetics, 45: 1004-1012; the entire content of which is incorporated herein by reference).

[8] = cited from earlier work
GLS1 = biological target: T1, GLS1 (Homo sapiens, UniProt O94925); conditions: dimeric vs tetrameric GLS1; cited from earlier work
T1 sequence (O94925 55-669): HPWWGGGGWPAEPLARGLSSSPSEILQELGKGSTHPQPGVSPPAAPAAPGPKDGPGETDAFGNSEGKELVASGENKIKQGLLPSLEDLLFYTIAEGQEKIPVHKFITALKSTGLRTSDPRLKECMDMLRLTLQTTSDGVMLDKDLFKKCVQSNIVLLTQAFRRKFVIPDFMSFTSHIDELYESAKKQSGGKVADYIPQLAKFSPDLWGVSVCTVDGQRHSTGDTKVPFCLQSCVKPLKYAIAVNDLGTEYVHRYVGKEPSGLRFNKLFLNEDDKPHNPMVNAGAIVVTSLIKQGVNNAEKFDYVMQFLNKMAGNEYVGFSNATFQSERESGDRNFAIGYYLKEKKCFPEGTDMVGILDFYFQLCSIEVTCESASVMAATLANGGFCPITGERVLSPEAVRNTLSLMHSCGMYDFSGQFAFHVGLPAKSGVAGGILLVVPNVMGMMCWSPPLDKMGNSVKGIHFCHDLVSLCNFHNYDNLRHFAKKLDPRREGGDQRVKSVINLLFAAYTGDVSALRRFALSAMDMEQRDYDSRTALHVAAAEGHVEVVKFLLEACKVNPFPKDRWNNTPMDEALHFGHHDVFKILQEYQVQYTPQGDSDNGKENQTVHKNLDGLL

ADPKD cells [9] = experiment: 8-bromo-cAMP stimulated proliferation, MTT assay; format: cell-based, human; conditions: 8-bromo-cAMP + BPTES
ADPKD cells [10] = experiment: Forskolin-induced proliferation, MTT assay; format: cell-based, human; conditions: co-culture of ADPKD cells with α-ketoglutarate
Description: FIG. 3. […] Proliferation was then quantitated 24 hours later using the MTT assay kit (Promega).
Elevated intracellular concentration of cAMP is characteristic of ADPKD cells in vivo and mediates activation of signaling pathways that lead to proliferation of ADPKD cells. Gls1 is also critical for proliferation of ADPKD cells.

[11] = ADPKD cells in collagen, forskolin, cultured 2 weeks with or without BPTES
[12] = BPTES 12.5 mg/kg IP QOD, postnatal day 10-24, vs vehicle control

With `O=C(Cc1ccccc1)Nc1nnc(CCSCCc2nnc(NC(=O)Cc3ccccc3)s2)s1` [BPTES] the “mTor activation (pS6)” value (mTor [1]) was “inhibits mTor activation”, the “basal and forskolin stimulated ATP production” value (ADPKD cells [2]) was “inhibited” and the “basal and forskolin stimulated mitochondrial O2 consumption” value (ADPKD cells [2]) was “inhibited”. For the same compound, the number of cysts (ADPKD cells [3]; [11]) was “markedly reduces the number of cysts”, the size of cysts (ADPKD cells [3]; [11]) was “profoundly decreases the size of those cysts that are formed” and the cyst growth [4] was “statistically significant inhibition of cyst growth”. The “intracellular ATP levels” value (ADPKD cells [5]) was “significant decrease”, the “colocalization or recruitment of mTor to the lysosome” value (mTor [6]) was “abolished” and the cyst volume [7, 12] was “significantly decreased”. For the same compound, the kidney size [7, 12] was “significantly decreased” and the kidney function ([7]; following BPTES administration) was “some preservation/restoration of kidney function was observed”.
For `CN(C)c1ccc(C2Nc3ccc4ccccc4c3C3=C2C(=O)CC(C)(C)C3)cc1Br` (stereo not shown) [compound 968, 5-(3-bromo-4-(dimethylamino)phenyl)-2,2-dimethyl-2,3,5,6-tetrahydrobenzo[a]phenanthridin-4(1H)-one], the aqueous solubility [8] is listed as “poor aqueous solubility” and the “inhibition of GLS1 oligomeric forms” value (GLS1) is listed as “only inhibits the nonactivated dimeric GLS1 and not the active tetramer”.
With `COC(=O)CCC(=O)C(=O)OC` [dimethyl α-ketoglutarate] the “rescue of BPTES inhibition of proliferation” value (ADPKD cells [9]) was “rescued the inhibition of proliferation”, the “rescue of cyst formation in siRNA transfected cells” value (ADPKD cells [3]; dimethyl α-ketoglutarate added to the medium) was “statistically significant rescue of cyst formation” and the “reversal of BPTES inhibition of proliferation” value (ADPKD cells [10]) was “reversed the inhibition of proliferation by BPTES”.
